Drawing on US12497405B2, “Bicyclic heterocycle compounds methods of use thereof for the treatment of herpes viruses” (Merck Sharp & Dohme LLC, priority 2019, dated 2025), this text covers IC50 and EC50 for 25 molecules.

For test [1], the target named is Human cytomegalovirus DNA polymerase (Human cytomegalovirus (strain AD169) (HHV-5) (Human herpesvirus 5), UniProt P08546). In words: CMV polymerase assay (AlphaLISA). Format: biochemical. Particulars: HCMV polymerase 0.2 nM, 30 min pre-incubation, 60 minute at 37° C. The procedure: (§1) Human cytomegalovirus and varicella zoster virus DNA polymerases were expressed via baculovirus vector in SF21 cells and purified. Heterodimeric nucleic acid substrate used in the herpesvirus polymerase reactions were generated by annealing a 59-mer template to a 17-mer digoxigenin-labeled primer. Polymerase (HCMV final concentration of 0.2 nM; VZV final concentration of 0.4 nM) was combined with an inhibitor compound or DMSO in assay buffer (10 mM HEPES, pH 7.5, 25 mM KCl, 25 mM NaCl, 5 mM MgCl2, 5% glycerol, 0.67 mg/ml bovine serum albumin, and 1 mM tris(2-carboxyethyl)phosphine)), and this mixture was pre-incubated for 30 minutes at room temperature in 384-well microtiter plates. The polymerization reaction was initiated by the addition of template/primer substrate (final concentration: 1.6 nM), and dNTPs (final concentration: 24 nM dCTP, 24 nMdGTP, 16 nM dATP, 16 nM dTTP, and 0.8 nM biotin-dUTP). After a 60 minute incubation period at 37° C., the reactions were terminated using quench buffer (25 mM HEPES pH 7.5, 100 mM NaCl, 0.25% Tween-20, 12 mM EDTA, and 1 mg/ml bovine serum albumin). Incorporation of biotinylated UTP was detected with 2.5-5 μg/mL anti-DIG AlphaLISA acceptor beads and 5-10 μg/mL streptavidin AlphaLISA donor beads (PerkinElmer). Compound effects were normalized to the window defined by the controls (DMSO only and pre-quenched wells), and were fit using a 4-parameter algorithm to report an IC50.

In test [2] the target is varicella zoster virus DNA polymerase (Varicella-zoster virus (strain Dumas) (HHV-3) (Human herpesvirus 3), UniProt P09252). Briefly: VZV polymerase assay (AlphaLISA). Format: biochemical. Particulars: VZV polymerase 0.4 nM, 30 min pre-incubation, 60 minute at 37° C. How it is done:
as §1

For a further test, the system named is CMV. In words: Viral qPCR assay, CMV. Format: cell-based. Particulars: Human betaherpesvirus 5, 72 h, infected cells, viral genome copies by qPCR normalized to PPIA, read-out: CMV Cell EC50. In a few lines:
(§2)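 Cells (MRC5/Vero/MeWo) + virus → onto compound plates, 10-pt 3-fold dilutions; ~72 hrs, 37° C, 5% CO2. Lysis with NP-40/Tween-20/proteinase K, 56° C 1 h, then 95° C 10 min. qPCR of viral gene vs PPIA, copies from plasmid standards. 4-parameter EC50.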

Another test has as its system HSV1. In words: Viral qPCR assay, HSV1. Format: cell-based. Particulars: Human alphaherpesvirus 1, 72 h, infected cells, viral genome copies by qPCR normalized to PPIA, read-out: HSV1 Cell EC50. The method, boiled down: as §2
The next test deals with HSV2. Briefly: Viral qPCR assay, HSV2. Particulars: Human alphaherpesvirus 2, 72 h, infected cells, viral genome copies by qPCR normalized to PPIA, read-out: HSV2 Cell EC50. Format: cell-based. The method, boiled down: as §2

In the case of `O=C1OC[C@@H]2C[C@@H](Oc3ccc4nc(C5CC5)n(Cc5ccc(Cl)cc5)c(=O)c4c3)CCN12` [Example 49], the IC50 in test [1] worked out at 29 nM; in test [2], 43 nM. Moreover, the half-maximal effective concentration (EC50) in the test on CMV is 369 nM; with HSV1 it was 1130 nM; in the test on HSV2, 1080 nM.
The like results for `Cc1nc2cc(-c3cnco3)c(O[C@H]3CCN4C(=O)OC[C@@H]4C3)cc2c(=O)n1Cc1ccc(Cl)cc1` [Example 51] were, in that order, 0.22 nM, 0.44 nM, 21 nM, 26 nM and 16 nM.
The corresponding values for `Cc1nc2cc(-c3cnn(C)c3)c(O[C@H]3CCN4C(=O)OC[C@@H]4C3)cc2c(=O)n1Cc1ccc(Cl)cc1` [Example 52] are 0.3 nM, 0.44 nM, 22 nM, 39 nM and 19 nM.
As for `Cc1nc2cc(-c3cn[nH]c3)c(O[C@H]3CCN4C(=O)OC[C@@H]4C3)cc2c(=O)n1Cc1ccc(Cl)cc1` [Example 53], the results for the IC50 in test [1] and in test [2] were 0.76 nM and 0.56 nM, respectively. For the same molecule, the EC50 with CMV was determined as 86 nM; in the test with HSV1, 89 nM; with HSV2, 35 nM.
Turning to `Cc1nc2cc(-c3cccnc3)c(O[C@H]3CCN4C(=O)OC[C@@H]4C3)cc2c(=O)n1Cc1ccc(Cl)cc1` [Example 54], the half-inhibitory concentration (IC50) in test [1] is 23 nM; in test [2], 28 nM. Besides, the half-maximal effective concentration (EC50) with CMV is 82 nM; with HSV1, 238 nM; in the test with HSV2, 173 nM.
The like results for `Cc1nc2cc(C#N)c(O[C@H]3CCN4C(=O)OC[C@@H]4C3)cc2c(=O)n1Cc1ccc(Cl)cc1` [Example 56] were, in that order, 2.8 nM, 6.5 nM, 64 nM, 124 nM and 109 nM.
The like results for `COc1nc2ccc(O[C@H]3CCN4C(=O)OC[C@@H]4C3)cc2c(=O)n1Cc1ccc(Cl)cc1` [Example 58] were, in that order, 23 nM, 47 nM, 173 nM, 996 nM and 1140 nM.
The corresponding values for `Cc1nc2ccc(O[C@H]3CCN4C(=O)OC[C@@H]4C3)cc2c(=O)n1Cc1ccc(C#N)cc1` [Example 59] are 31 nM, 29 nM, 347 nM, 746 nM and 561 nM.
Consider `Cc1nc2cc(-c3cnco3)c(O[C@H]3CCN4C(=O)OC[C@@H]4C3)cc2c(=O)n1Cc1ccc(C#N)cc1` [Example 60], for which the IC50 in test [1] came out at 0.82 nM; in test [2], 0.44 nM. Also, the EC50 came out at 53 nM in the test with CMV, 84 nM in the test on HSV1 and 40 nM with HSV2.
The like results for `Cc1nc2cc(-c3cnn(C(F)F)c3)c(O[C@H]3CCN4C(=O)OC[C@@H]4C3)cc2c(=O)n1Cc1ccc(C#N)cc1F` [Example 64] were, in that order, 2.5 nM, 8.9 nM, 64 nM, 71 nM and 51 nM.
Take `CCc1nc2cc(-c3cnco3)c(O[C@H]3CCN4C(=O)OC[C@@H]4C3)cc2c(=O)n1Cc1ccc(C#N)cc1` [Example 65]: the IC50 in test [1] came to 1.2 nM; in test [2], 0.68 nM. Moreover, the EC50 in the test on CMV is 28 nM; with HSV1 it was 46 nM; in the test on HSV2 it was 18 nM.
The like results for `Cc1nc2cc(-c3cnn(C(F)F)c3)c(O[C@H]3CCN4C(=O)OC[C@@H]4C3)cc2c(=O)n1Cc1ccc(C#N)c(F)c1` [Example 66] were, in that order, 2.2 nM, 4.8 nM, 50 nM, 43 nM and 34 nM.
The like results for `Cc1nc2ncc(O[C@H]3CCN4C(=O)OC[C@@H]4C3)cc2c(=O)n1Cc1ccc(Cl)cc1` [Example 69] were, in that order, 35 nM, 29 nM, 307 nM, 870 nM and 1300 nM.
The like results for `Cc1nc2cc(-c3cnn(C4CCN(C)CC4)c3)c(O[C@H]3CCN4C(=O)OC[C@@H]4C3)cc2c(=O)n1Cc1ccc(C#N)cc1` [Example 71] were, in that order, 3.7 nM, 13 nM, 197 nM, 234 nM and 171 nM.
In the case of `Cc1nc2cc(C3CC(O)C3)c(O[C@H]3CCN4C(=O)OC[C@@H]4C3)cc2c(=O)n1Cc1ccc(C#N)cc1` (some centres unmarked) [Example 72], the half-inhibitory concentration (IC50) was determined as 7.5 nM in test [1] and 4.7 nM in test [2]. For the same molecule, the EC50 was 195 nM in the test with CMV, 181 nM in the test with HSV1 and 404 nM with HSV2.
The like results for `Cc1nc2cc(-c3cn4c(n3)CNCC4)c(O[C@H]3CCN4C(=O)OC[C@@H]4C3)cc2c(=O)n1Cc1ccc(C#N)cc1` [Example 73] were, in that order, 1 nM, 5.2 nM, 4180 nM, 3880 nM and 3020 nM.
Take `Cc1nc2cc(C3CC(C)(O)C3)c(O[C@H]3CCN4C(=O)OC[C@@H]4C3)cc2c(=O)n1Cc1ccc(C#N)cc1` (some centres unmarked) [Example 74]: the IC50 in test [1] and in test [2] was 6.4 nM in each case. Also, the EC50 in the test with CMV is 55 nM; in the test with HSV1 it was 447 nM; with HSV2, 432 nM.
In the case of `COc1ncc(-c2cc3nc(C)n(Cc4ccc(C#N)cc4)c(=O)c3cc2O[C@H]2CCN3C(=O)OC[C@@H]3C2)cn1` [Example 75], the figures for the IC50 in test [1] and in test [2] were 29 nM and 23 nM, respectively. In addition, the EC50 with CMV turned out to be 164 nM; in the test with HSV1, 381 nM; in the test on HSV2, 413 nM.
The corresponding values for `Cc1nc2cc(-c3cc(C(F)(F)F)[nH]n3)c(O[C@H]3CCN4C(=O)OC[C@@H]4C3)cc2c(=O)n1Cc1ccc(C#N)cc1` [Example 76] are 11 nM, 11 nM, 261 nM, 412 nM and 309 nM.
The corresponding values for `CCc1nc2cc(-c3cnc(OC)nc3)c(O[C@H]3CCN4C(=O)OC[C@@H]4C3)cc2c(=O)n1Cc1ccc(Cl)cc1` [Example 78] are 15 nM, 20 nM, 178 nM, 405 nM and 224 nM.
On to `Cc1nc2cc(-c3cn4c(n3)CN(C)CC4)c(O[C@H]3CCN4C(=O)OC[C@@H]4C3)cc2c(=O)n1Cc1ccc(Cl)cc1` [Example 79], for which the IC50 in test [1] worked out at 4.9 nM; in test [2] it was 5.5 nM. Also, the EC50 in the test on CMV worked out at 147 nM; with HSV1, 111 nM; in the test on HSV2, 123 nM.
The corresponding values for `Cc1nc2cc(-c3cn(C(F)F)cn3)c(O[C@H]3CCN4C(=O)OC[C@@H]4C3)cc2c(=O)n1Cc1ccc(C#N)cc1` [Example 80] are 7.6 nM, 5.6 nM, 124 nM, 157 nM and 227 nM.
The corresponding values for `Cc1nc2cc(-c3nc4n(n3)CCN(C)C4)c(O[C@H]3CCN4C(=O)OC[C@@H]4C3)cc2c(=O)n1Cc1ccc(Cl)cc1` [Example 81] are 15 nM, 27 nM, 265 nM, 364 nM and 307 nM.
As to `Cc1nc2cc(-c3cn(C(F)F)cn3)c(O[C@H]3CCN4C(=O)OC[C@@H]4C3)cc2c(=O)n1Cc1ccc(Cl)cc1` [Example 82], the 50% inhibitory concentration (IC50) in test [1] is 5.5 nM; in test [2], 7.1 nM. For the same molecule, the results for the EC50 in the test on CMV, with HSV1 and with HSV2 were 52 nM, 63 nM and 45 nM, respectively.
In the case of `Cc1nc2cc(-c3cc4n(n3)CCNC4)c(O[C@H]3CCN4C(=O)OC[C@@H]4C3)cc2c(=O)n1Cc1ccc(Cl)cc1` [Example 84], the concentration for half-maximal inhibition (IC50) in test [1] and in test [2] was 0.44 nM throughout. Moreover, the EC50 in the test on CMV was 177 nM; in the test with HSV1, 113 nM; in the test on HSV2 it was 102 nM.
